From PubChem BioAssay (NCI)
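Protocol summary: plate cells (96-well), add compound at 5 concentrations, incubate 48 h, interpolate endpoints linearly. TGI: total growth inhibition.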

Assays:
Assay in all cases: inhibition of tumour cell growth, NCI panel, 48 h
786-0 renal = tested on: 786-0 renal
A498 renal = tested on: A498 renal
A549 NSCLC = tested on: A549 NSCLC
ACHN renal = tested on: ACHN renal
CAKI-1 renal = tested on: CAKI-1 renal
CCRF-CEM leukemia = tested on: CCRF-CEM leukemia
COLO 205 colon = tested on: COLO 205 colon
DU-145 prostate = tested on: DU-145 prostate
EKVX NSCLC = tested on: EKVX NSCLC
HCC-2998 colon = tested on: HCC-2998 colon
HCT-116 colon = tested on: HCT-116 colon
HCT-15 colon = tested on: HCT-15 colon
HL-60(TB) leukemia = tested on: HL-60(TB) leukemia
HOP-62 NSCLC = tested on: HOP-62 NSCLC
HOP-92 NSCLC = tested on: HOP-92 NSCLC
HT29 colon = tested on: HT29 colon
IGROV1 ovarian = tested on: IGROV1 ovarian
K-562 leukemia = tested on: K-562 leukemia
KM12 colon = tested on: KM12 colon
LOX IMVI melanoma = tested on: LOX IMVI melanoma
M14 melanoma = tested on: M14 melanoma
MCF7 breast = tested on: MCF7 breast
MDA-MB-231 breast = tested on: MDA-MB-231 breast
MDA-MB-435 = tested on: MDA-MB-435
MDA-N = tested on: MDA-N
MOLT-4 leukemia = tested on: MOLT-4 leukemia
NCI-H226 lung = tested on: NCI-H226 lung
NCI-H23 lung = tested on: NCI-H23 lung
NCI-H460 lung = tested on: NCI-H460 lung
NCI/ADR-RES ovarian = tested on: NCI/ADR-RES ovarian
OVCAR-3 ovarian = tested on: OVCAR-3 ovarian
OVCAR-4 ovarian = tested on: OVCAR-4 ovarian
OVCAR-5 ovarian = tested on: OVCAR-5 ovarian
OVCAR-8 ovarian = tested on: OVCAR-8 ovarian
PC-3 prostate = tested on: PC-3 prostate
RPMI-8226 leukemia = tested on: RPMI-8226 leukemia
SF-268 CNS = tested on: SF-268 CNS
SF-295 CNS = tested on: SF-295 CNS
SK-MEL-2 melanoma = tested on: SK-MEL-2 melanoma
SK-MEL-28 melanoma = tested on: SK-MEL-28 melanoma
SK-MEL-5 melanoma = tested on: SK-MEL-5 melanoma
SK-OV-3 ovarian = tested on: SK-OV-3 ovarian
SN12C renal = tested on: SN12C renal
SNB-19 CNS = tested on: SNB-19 CNS
SNB-75 CNS = tested on: SNB-75 CNS
SR leukemia = tested on: SR leukemia
SW-620 colon = tested on: SW-620 colon
T-47D breast = tested on: T-47D breast
TK-10 renal = tested on: TK-10 renal
U251 CNS = tested on: U251 CNS
UACC-257 melanoma = tested on: UACC-257 melanoma
UACC-62 melanoma = tested on: UACC-62 melanoma
UO-31 renal = tested on: UO-31 renal
BT-549 breast = tested on: BT-549 breast
HS 578T breast = tested on: HS 578T breast
MALME-3M melanoma = tested on: MALME-3M melanoma
NCI-H522 lung = tested on: NCI-H522 lung
RXF 393 renal = tested on: RXF 393 renal
SF-539 CNS = tested on: SF-539 CNS

COC1/C=C/C(C)C(C(C)C(OC)C(C)CCC(=O)C(C)C(CC(=O)O)OC)OC(=O)/C=C/C=C(\C)CC(OC)C(OC)C2=CC(=O)O[C@@H](C(C)C(OC)CC(OC)/C=C/C(C)C(O)C1)[C@H]2O (stereo partly drawn)
TGI (786-0 renal): 120 nM | TGI (A498 renal): 365 nM | TGI (A549 NSCLC): 437 nM | TGI (ACHN renal): > 1.07 µM | TGI (CAKI-1 renal): > 1070 nM | TGI (CCRF-CEM leukemia): > 1.07 µM | TGI (COLO 205 colon): > 1070 nM | TGI (DU-145 prostate): > 1.07 µM | TGI (EKVX NSCLC): 0.175 µM | TGI (HCC-2998 colon): > 1.07 µM | TGI (HCT-116 colon): 227 nM | TGI (HCT-15 colon): 926 nM | TGI (HL-60(TB) leukemia): 74 nM | TGI (HOP-62 NSCLC): 0.468 µM | TGI (HOP-92 NSCLC): 91.7 nM | TGI (HT29 colon): 70.1 nM | TGI (IGROV1 ovarian): 29.7 nM | TGI (K-562 leukemia): > 1.07 µM | TGI (KM12 colon): > 1.07 µM | TGI (LOX IMVI melanoma): > 1.07 µM | TGI (M14 melanoma): 73.9 nM | TGI (MCF7 breast): > 1.07 µM | TGI (MDA-MB-231 breast): 0.754 µM | TGI (MDA-MB-435): 1020 nM | TGI (MDA-N): > 1.07 µM | TGI (MOLT-4 leukemia): > 1.07 µM | TGI (NCI-H226 lung): 127 nM | TGI (NCI-H23 lung): 722 nM | TGI (NCI-H460 lung): > 1.07 µM | TGI (NCI/ADR-RES ovarian): 0.47 µM | TGI (OVCAR-3 ovarian): > 1.07 µM | TGI (OVCAR-4 ovarian): > 1.07 µM | TGI (OVCAR-5 ovarian): > 1.07 µM | TGI (OVCAR-8 ovarian): 132 nM | TGI (PC-3 prostate): > 1.07 µM | TGI (RPMI-8226 leukemia): > 1.07 µM | TGI (SF-268 CNS): 157 nM | TGI (SF-295 CNS): 261 nM | TGI (SK-MEL-2 melanoma): 625 nM | TGI (SK-MEL-28 melanoma): 267 nM | TGI (SK-MEL-5 melanoma): 242 nM | TGI (SK-OV-3 ovarian): 0.289 µM | TGI (SN12C renal): > 1.07 µM | TGI (SNB-19 CNS): > 1.07 µM | TGI (SNB-75 CNS): 98.2 nM | TGI (SR leukemia): > 1070 nM | TGI (SW-620 colon): > 1.07 µM | TGI (T-47D breast): 981 nM | TGI (TK-10 renal): 306 nM | TGI (U251 CNS): > 1.07 µM | TGI (UACC-257 melanoma): > 1.07 µM | TGI (UACC-62 melanoma): > 1070 nM | TGI (UO-31 renal): 150 nM

Nc1ccc2c(c1)N(C(=O)CCCC(=O)N1CC(CCl)c3ccc(N)cc31)CC2CCl (stereo not drawn)
TGI (786-0 renal): > 29700 nM | TGI (A498 renal): 3470 nM | TGI (A549 NSCLC): > 50000 nM | TGI (ACHN renal): > 41 µM | TGI (BT-549 breast): 6.53 µM | TGI (CCRF-CEM leukemia): > 20.1 µM | TGI (COLO 205 colon): 2100 nM | TGI (DU-145 prostate): > 21 µM | TGI (EKVX NSCLC): 7.8 µM | TGI (HCC-2998 colon): > 50 µM | TGI (HCT-116 colon): > 50000 nM | TGI (HCT-15 colon): > 14600 nM | TGI (HL-60(TB) leukemia): 907 nM | TGI (HOP-62 NSCLC): 8.94 µM | TGI (HOP-92 NSCLC): > 50000 nM | TGI (HS 578T breast): 1940 nM | TGI (HT29 colon): > 13500 nM | TGI (IGROV1 ovarian): > 11300 nM | TGI (K-562 leukemia): > 15.8 µM | TGI (KM12 colon): 3.99 µM | TGI (LOX IMVI melanoma): 11.3 µM | TGI (M14 melanoma): 4700 nM | TGI (MALME-3M melanoma): 451 nM | TGI (MCF7 breast): 12.9 µM | TGI (MDA-MB-231 breast): 8.76 µM | TGI (MDA-MB-435): 3170 nM | TGI (MDA-N): 3.82 µM | TGI (MOLT-4 leukemia): > 50 µM | TGI (NCI-H226 lung): > 50000 nM | TGI (NCI-H23 lung): 4160 nM | TGI (NCI-H460 lung): > 50 µM | TGI (NCI-H522 lung): 286 nM | TGI (NCI/ADR-RES ovarian): 42.7 µM | TGI (OVCAR-3 ovarian): > 50 µM | TGI (OVCAR-4 ovarian): > 11.1 µM | TGI (OVCAR-5 ovarian): > 41.3 µM | TGI (OVCAR-8 ovarian): > 11200 nM | TGI (PC-3 prostate): 16.4 µM | TGI (RPMI-8226 leukemia): > 10.2 µM | TGI (RXF 393 renal): 582 nM | TGI (SF-268 CNS): 3310 nM | TGI (SF-295 CNS): > 50000 nM | TGI (SF-539 CNS): 11.3 µM | TGI (SK-MEL-2 melanoma): 1430 nM | TGI (SK-MEL-28 melanoma): > 14400 nM | TGI (SK-MEL-5 melanoma): 689 nM | TGI (SK-OV-3 ovarian): 48.6 µM | TGI (SN12C renal): 9.67 µM | TGI (SNB-19 CNS): 11.3 µM | TGI (SNB-75 CNS): 2870 nM | TGI (SW-620 colon): > 50 µM | TGI (TK-10 renal): > 48100 nM | TGI (U251 CNS): > 26.2 µM | TGI (UACC-257 melanoma): > 50 µM | TGI (UO-31 renal): 2740 nM
